Experiments:
Format in all cases: in vivo
Meloidogyne incognita = assay: Root infestation on agar plate: root knot count on potato microplant roots; details: 60 μM in agar, galls counted 5 weeks after inoculation, four replicates
Summary of the method: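 Potato cv. Desirée microplants were grown 2-3 weeks on agar at 20 °C, and compound diffused in from DMSO for 2 days (60 μM in agar). Plates were then inoculated with ~400 axenic M. incognita juveniles. Root galls were counted 5 weeks later in the dark at 20 °C, with four replicates per compound and root toxicity noted.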

Heterodera nematode = assay: Pot Assay 3: Heterodera infection of sugar beet, crop vigor and crop height; details: infested soil
Description: The soil used in this assay originated from a Heterodera nematode infested sugar plot of which the infestation was confirmed by means of several soil analyses. Each pot was filled up with a soil mixture composed as follows: a) the infested soil was constituted by silt loam soil (about 600 g/pot) mixed with sterile peat (about 600 g/pot) and sterile cork (about 200 g/pot); b) the sterile soil was instead constituted only by sterile peat (1200 g/pot) and sterile cork (200 g/pot).
(§1) Each compound or compound mixture as described herein was tested in 4 different rates with 4 replicates per rate. One pot per replicate was used in which 18 beava sugar beet seeds (variety GEA (KWS)) were sown. After crop germination, the number of plants was reduced to 10 plants. The 4 rates added to the soil of the tested compounds or compound mixtures were 0.05 mg, 0.20 mg, 1 mg and 5 mg. These amounts translate to field application rates respectively as 30, 120, 600 and 3000 g per hectare.
Efficacy of the compounds described herein as nematicide was measured by visual inspection of the crop vigor and the crop height. The crop vigor evaluation is based on a 0-100 scale, where 0 is “no vigor” and 100 is “maximum vigor”. The crop height development is based on a measurement, in cm, per plant, excluding the root system.
Positive control plants were treated with Oxamyl (Vydate 5 G, 5% gr) at a rate of 40 kg fp per ha. Negative controls involved single negative controls (no compound, with nematode infested soil; referenced as “Untreated 1”) and double negative controls (no compound, sterile soil; referenced as “Untreated 2”).

[1] = tested on: sugar beet (variety GEA (KWS)); assay: Pot Assay 3: phytotoxicity, number of sugar beet plants emerged
Description: as §1
Phytotoxicity assessments were carried by assessing any possible effects of the chemicals on the crop, such as chlorosis, yellowing, stunting, in comparison to the untreated control without nematodes.

CCCCc1c(C)nc(NCC)nc1OS(=O)(=O)N(C)C [XLIII]
Root knot count, average of the replicate counts (Meloidogyne incognita): 8
crop height (cm) (Heterodera nematode; Rate 1 mg): 14 cm
crop vigor (max 100%) (Heterodera nematode; Rate 1 mg): 80%
crop height (cm) (Heterodera nematode; Rate 5 mg): 15 cm
crop vigor (max 100%) (Heterodera nematode; Rate 5 mg): 100%
# crops emerged (max 18) ([1]; Rate 1 mg): 18
# crops emerged (max 18) ([1]; Rate 5 mg): 18
